Tests used:
Assay type in all cases: cell-based, human
[1] = system: reconstructed epidermises from donors of 1 month of age; assay: Cell viability (MTT test) of reconstructed epidermises after product application; conditions: reconstructed epidermis from 1-month-old donors, applied for 16 hours
Description: (§1) Reconstructed skin models were generated using these samples. Reconstructed epidermises were thus produced with the various donors selected using the technique by Poumay et al. (Arch Dermatol Res, 296(5): 203-211, 2004). After two days of submerged culture, the reconstructed epidermises were cultured at the air/liquid interface for 5 or 9 days. For the duration of the culture, the medium was replenished every 2 to 3 days.
(§2) Epidermises were reconstructed as specified in example 1 with keratinocytes from donors of 1 month of age. The products, a cleansing cream and a moisturising lotion both containing avocado perseose, were applied on these reconstructed epidermises for 16 hours. A control was produced by applying 0.4% SDS on control reconstructed epidermis samples.
(§3) IL-8 protein was assayed in the culture supernatant using an Elisa test. The cell viability was evaluated using the MTT test. Finally, a histological analysis was conducted on tissues included in paraffin by means of haematoxylin and eosin staining.

[2] = system: IL-8 protein; assay: IL-8 protein assay in culture supernatant (Elisa test) of treated reconstructed epidermises; conditions: reconstructed epidermis from 1-month-old donors, applied for 16 hours
Description: as §1, §2, §3

[3] = system: reconstructed epidermises from donors of 1 month of age; assay: Histological analysis (haematoxylin and eosin) of thickness of live cell layers of treated reconstructed epidermises; conditions: histology, reconstructed epidermis from 1-month-old donors, applied for 16 hours, control = 100%, SDS at 0.4%
Description: as §1, §2, §3

IL8 inflammatory molecule ([2]; Elisa in culture supernatant, control = 100%, SDS at 0.4%): 602%
Effect on IL-8 expression (in words) [2]: significant increase
SMILES: CCCCCCCCCCCCOS(=O)(=O)[O-].[Na+] [SDS]
Viability ([1]; MTT test, control = 100%, SDS at 0.4%): 2%
Effect on cell viability (in words) [1]: very significantly reduced
Thickness of live layers [3]: 58%
